In patent US20110064680A1, “NATURALLY DERIVED WATERPROOFING AGENTS FOR AQUEOUS-BASED PERSONAL CARE PRODUCTS” (Pinova, Inc., priority 2009, published 2011):

Experiment: Solubility of solid sunscreen actives in the hydrogenated wood resins
Format: physicochemical
Settings: solvent: hydrogenated wood resins
From the text: During the making of the sunscreens, it was observed that the systems containing the hydrogenated wood resins more easily solubilzed the solid sunscreens (Oxybenzone and Avobenzone). […]

| SMILES | solubility of these actives in the hydrogenated wood resins [%] |
| --- | --- |
| COc1ccc(C(=O)CC(=O)c2ccc(C(C)(C)C)cc2)cc1 [Avobenzone] | 13 |
| COc1ccc(C(=O)c2ccccc2)c(O)c1 [Oxybenzone] | 24 |
